Experimental data as given in US6518261B2, “Use of eugenol in combination with other chemopreventative agents as prophylaxis for cancers” (Oncology Sciences Corporation, priority 2000, dated 2003).

Tests used:
[1] = system: LNCaP cells; assay: Cell growth by trypan blue exclusion cell counting, confirmed by cell proliferation assay kit; format: cell-based, human; conditions: 72 hours of treatment, FIG. 2
Description: These cells were treated with different concentrations of eugenol (0.5, 1, 3, 5 and 10 mM). Cell growth was monitored every 24 hours by counting the increase in the cell number using trypan blue exclusion assay.
Cells were treated with either eugenol (0.25, 0.5, 0.75 or 1 mM) or 2-ME (0.5, 1, 2 or 3 mM) or both (0.25, 0.5, 0.75 or 1 mM of eugenol along with 0.5 mM of 2-ME). Cell growth was measured following 72 hours of treatment as described above.

[2] = system: suspect cells; assay: Cell cycle analysis; format: cell-based; conditions: cell cycle analysis data
Text: Therefore induction of cell death pathway by 2-ME and growth inhibition by eugenol through a different pathway presents a tremendous new weapon for use in preventing and combating cancer.

| SMILES | inhibition of growth of LNCaP cells ([1]; 0.5 mM of 2-ME) | effect on cell cycle profile / mechanism of growth inhibition [2] | inhibition of growth of LNCaP cells ([1]; 0.25 mM of eugenol) |
| --- | --- | --- | --- |
| COc1cc2c(cc1O)CC[C@@H]1[C@@H]2CC[C@]2(C)[C@@H](O)CC[C@@H]12 [2-ME, 2-methoxyestradiol] | about 20% | inducing apoptosis and blocking cells in G2/M phase | – |
| C=CCc1ccc(O)c(OC)c1 [eugenol] | – | without any significant alterations in the cells cycle profile | about 30% |
